Laboratory results taken from PubChem BioAssay AID1671295.

Target: Receptor tyrosine-protein kinase erbB-4 (Homo sapiens) (UniProt Q15303)
Assay: ERBB4 kinase inhibitors, dose response, biochemical, Z'-LYTE FRET, direct format, recombinant human (AID 1671295)
Details: Z'-LYTE FRET kinase activity

Chain of Receptor tyrosine-protein kinase erbB-4 (Homo sapiens) (Q15303 whole entry, looked up): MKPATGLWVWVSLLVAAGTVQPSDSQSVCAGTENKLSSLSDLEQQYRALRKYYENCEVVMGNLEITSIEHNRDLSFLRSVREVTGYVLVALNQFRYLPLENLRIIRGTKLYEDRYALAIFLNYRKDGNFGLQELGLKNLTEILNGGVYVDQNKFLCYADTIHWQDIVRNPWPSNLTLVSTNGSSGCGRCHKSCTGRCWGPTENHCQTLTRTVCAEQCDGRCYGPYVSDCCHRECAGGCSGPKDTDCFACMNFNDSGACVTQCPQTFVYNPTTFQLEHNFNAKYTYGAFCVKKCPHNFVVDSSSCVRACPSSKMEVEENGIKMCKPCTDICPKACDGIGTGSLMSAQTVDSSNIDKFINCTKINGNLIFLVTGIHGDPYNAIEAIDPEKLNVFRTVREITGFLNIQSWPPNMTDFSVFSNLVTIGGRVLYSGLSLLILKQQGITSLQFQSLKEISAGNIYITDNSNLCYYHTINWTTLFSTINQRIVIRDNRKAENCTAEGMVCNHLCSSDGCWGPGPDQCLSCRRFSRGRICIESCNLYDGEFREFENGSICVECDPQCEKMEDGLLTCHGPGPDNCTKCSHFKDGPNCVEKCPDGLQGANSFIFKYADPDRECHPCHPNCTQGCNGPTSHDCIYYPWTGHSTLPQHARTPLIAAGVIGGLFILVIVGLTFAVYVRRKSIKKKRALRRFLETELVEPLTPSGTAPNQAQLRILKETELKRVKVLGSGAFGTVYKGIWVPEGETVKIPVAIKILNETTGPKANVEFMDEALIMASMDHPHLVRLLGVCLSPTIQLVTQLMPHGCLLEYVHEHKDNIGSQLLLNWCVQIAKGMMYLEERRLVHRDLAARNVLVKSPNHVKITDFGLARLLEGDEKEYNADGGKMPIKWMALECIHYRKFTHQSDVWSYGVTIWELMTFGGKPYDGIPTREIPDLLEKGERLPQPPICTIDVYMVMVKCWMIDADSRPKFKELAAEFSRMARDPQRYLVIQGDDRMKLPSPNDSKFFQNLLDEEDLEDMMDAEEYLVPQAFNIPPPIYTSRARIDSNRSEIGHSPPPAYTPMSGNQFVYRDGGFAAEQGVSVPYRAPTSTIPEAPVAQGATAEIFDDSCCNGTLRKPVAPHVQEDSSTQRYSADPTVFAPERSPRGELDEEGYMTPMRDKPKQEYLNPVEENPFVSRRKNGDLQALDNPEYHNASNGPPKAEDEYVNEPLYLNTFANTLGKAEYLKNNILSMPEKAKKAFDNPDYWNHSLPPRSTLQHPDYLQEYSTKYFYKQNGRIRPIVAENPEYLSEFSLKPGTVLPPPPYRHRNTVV

- IC50: 154 nM
SMILES: COc1cc2ncnc(Nc3cccc(Cl)c3)c2cc1OC
